The values that follow come from US6720314B1, “Use of a vital dye for facilitating surgical procedures for cataract extraction” (priority 1998, dated 2004).

For one data set, the system named is anterior lens capsule. The data set is described as follows: staining capacity of the dyes (general statement). The settings on record: very low amounts of dye.
The nature of data set [1]: toxicity profile of the dyes (general statement).

For the compound `CCN(CC)c1ccc2nc3cc(C)c(N)cc3[o+]c2c1.[Cl-]` [brilliant crysyl blue], the staining result in the data set with anterior lens capsule is “clearly visible staining at very low amounts”. For the same compound, the toxicity profile result in data set [1] is given as “extremely advantageous toxicity profile”.

On to `Cc1cc(-c2ccc(/N=N/c3c(S(=O)(=O)O)cc4cc(S(=O)(=O)O)cc(N)c4c3O)c(C)c2)ccc1/N=N/c1c(S(=O)(=O)O)cc2cc(S(=O)(=O)O)cc(N)c2c1O` [trypan blue], for which the staining result in the data set on anterior lens capsule is given as “clearly visible staining at very low amounts”. In data set [1], the toxicity profile result is “extremely advantageous toxicity profile”.

Turning to `Nc1c(S(=O)(=O)[O-])cc2cc(S(=O)(=O)[O-])ccc2c1N=Nc1ccc(-c2ccc(N=Nc3c(N)c(S(=O)(=O)[O-])cc4cc(S(=O)(=O)[O-])ccc34)c(S(=O)(=O)[O-])c2)cc1.[Na+].[Na+].[Na+].[Na+].[Na+]` [trypan red], in the data set with anterior lens capsule, the staining entry was “clearly visible staining at very low amounts”.
